Laboratory results as given in BindingDB's records for doi:10.1016/S0960-894X(01)80770-8 (1993).
Where a name gives a salt, the structure may show the parent alone.

Columns and labels:
[1] = target: S-adenosylmethionine decarboxylase proenzyme (Escherichia coli) (UniProt P0A7F6); test: Compound was evaluated for its inhibitory activity against AdoMet-DC from Escherichia coli
[2] = Compound was evaluated to inactivate the bacterial AdoMet-DC

S-adenosylmethionine decarboxylase proenzyme (Escherichia coli), sequence (P0A7F6 whole entry, looked up): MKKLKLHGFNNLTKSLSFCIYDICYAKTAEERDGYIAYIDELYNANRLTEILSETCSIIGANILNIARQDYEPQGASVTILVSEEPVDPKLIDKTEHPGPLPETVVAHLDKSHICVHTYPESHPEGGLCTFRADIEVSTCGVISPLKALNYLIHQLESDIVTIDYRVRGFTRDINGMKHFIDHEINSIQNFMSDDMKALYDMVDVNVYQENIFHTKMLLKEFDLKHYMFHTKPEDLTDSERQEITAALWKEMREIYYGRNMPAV

| IC50 [1] [µM] | Ki [2] [µM] | SMILES |
| --- | --- | --- |
| 9 | 31.1 | C[S+](CCC(N)C#N)C[C@H]1O[C@@H](n2cnc3c(N)ncnc32)[C@H](O)[C@@H]1O (stereo partly drawn) [2-amino-4-({[(2S,3S,4R)-5-(6-amino-9H-purin-9-yl)-3,4-dihydroxyoxolan-2-yl]methyl}(methyl)-sulfanyl)butanenitrile dihydrobromide] |
| 179 | – | N#CC(N)CCSC[C@H]1O[C@@H](n2cnc3c(N)ncnc32)[C@H](O)[C@@H]1O (stereo not given in full) |
| 205 | – | N#CC(N)CCCSC[C@H]1O[C@@H](n2cnc3c(N)ncnc32)[C@H](O)[C@@H]1O (stereo not given in full) |
| 50 | – | C[S+](CCCC(N)C#N)C[C@H]1O[C@@H](n2cnc3c(N)ncnc32)[C@H](O)[C@@H]1O (stereo partly drawn) [2-amino-5-({[(2S,3S,4R)-5-(6-amino-9H-purin-9-yl)-3,4-dihydroxyoxolan-2-yl]methyl}(methyl)-sulfanyl)pentanenitrile dihydrobromide] |
